Assay results taken from PubChem BioAssay (NCI).
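These data come from cells grown in 96-well plates and exposed to compound for 48 hours at five concentrations. Here, GI50 denotes the concentration required for 50% inhibition of growth. Definition used: TGI = concentration required for complete inhibition of growth.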

Experiments:
Test in all cases: inhibition of tumour cell growth, NCI panel, 48 h; in the data active = GI50 below about 0.43 µM; inactive = the rest
SK-OV-3 ovarian = test system: SK-OV-3 ovarian
BT-549 breast = test system: BT-549 breast
DU-145 prostate = test system: DU-145 prostate
OVCAR-3 ovarian = test system: OVCAR-3 ovarian
SNB-19 CNS = test system: SNB-19 CNS
U251 CNS = test system: U251 CNS
MDA-MB-231 breast = test system: MDA-MB-231 breast
KM12 colon = test system: KM12 colon
SK-MEL-5 melanoma = test system: SK-MEL-5 melanoma
SK-MEL-28 melanoma = test system: SK-MEL-28 melanoma
LOX IMVI melanoma = test system: LOX IMVI melanoma
T-47D breast = test system: T-47D breast
UACC-62 melanoma = test system: UACC-62 melanoma
ACHN renal = test system: ACHN renal
NCI-H226 lung = test system: NCI-H226 lung
SN12C renal = test system: SN12C renal
CAKI-1 renal = test system: CAKI-1 renal
A498 renal = test system: A498 renal
NCI-H460 lung = test system: NCI-H460 lung
SW-620 colon = test system: SW-620 colon
IGROV1 ovarian = test system: IGROV1 ovarian
HL-60(TB) leukemia = test system: HL-60(TB) leukemia
NCI-H522 lung = test system: NCI-H522 lung
MCF7 breast = test system: MCF7 breast
MOLT-4 leukemia = test system: MOLT-4 leukemia
HT29 colon = test system: HT29 colon
NCI/ADR-RES ovarian = test system: NCI/ADR-RES ovarian
HS 578T breast = test system: HS 578T breast
MDA-MB-435 = test system: MDA-MB-435
OVCAR-5 ovarian = test system: OVCAR-5 ovarian
SF-295 CNS = test system: SF-295 CNS
M14 melanoma = test system: M14 melanoma
RXF 393 renal = test system: RXF 393 renal
SK-MEL-2 melanoma = test system: SK-MEL-2 melanoma
UO-31 renal = test system: UO-31 renal
HCT-15 colon = test system: HCT-15 colon
HOP-92 NSCLC = test system: HOP-92 NSCLC
COLO 205 colon = test system: COLO 205 colon
TK-10 renal = test system: TK-10 renal
K-562 leukemia = test system: K-562 leukemia
NCI-H23 lung = test system: NCI-H23 lung
OVCAR-4 ovarian = test system: OVCAR-4 ovarian
PC-3 prostate = test system: PC-3 prostate
MALME-3M melanoma = test system: MALME-3M melanoma
SNB-75 CNS = test system: SNB-75 CNS
SF-268 CNS = test system: SF-268 CNS
786-0 renal = test system: 786-0 renal
RPMI-8226 leukemia = test system: RPMI-8226 leukemia
UACC-257 melanoma = test system: UACC-257 melanoma
HOP-62 NSCLC = test system: HOP-62 NSCLC
CCRF-CEM leukemia = test system: CCRF-CEM leukemia
SF-539 CNS = test system: SF-539 CNS
EKVX NSCLC = test system: EKVX NSCLC
HCT-116 colon = test system: HCT-116 colon
OVCAR-8 ovarian = test system: OVCAR-8 ovarian
A549 NSCLC = test system: A549 NSCLC

CCOC(=O)c1cc(NC(=O)c2cc(NC(=O)c3cc(NC(=O)c4c(-c5ccccc5)noc4C)cn3C)cn2C)cn1C
active: GI50 (HOP-92 NSCLC) 0.241 µM
4.36 µM: TGI (HOP-92 NSCLC)
> 100 µM: TGI (SK-OV-3 ovarian) | TGI (DU-145 prostate) | TGI (OVCAR-3 ovarian) | TGI (SNB-19 CNS) | TGI (U251 CNS) | TGI (MDA-MB-231 breast) | TGI (KM12 colon) | TGI (SK-MEL-5 melanoma) | TGI (SK-MEL-28 melanoma) | TGI (LOX IMVI melanoma) | TGI (T-47D breast) | TGI (UACC-62 melanoma) | TGI (ACHN renal) | TGI (NCI-H226 lung) | TGI (SN12C renal) | TGI (CAKI-1 renal) | TGI (A498 renal) | TGI (NCI-H460 lung) | TGI (SW-620 colon) | TGI (IGROV1 ovarian) | TGI (HL-60(TB) leukemia) | TGI (NCI-H522 lung) | TGI (MCF7 breast) | TGI (MOLT-4 leukemia) | TGI (HT29 colon) | TGI (NCI/ADR-RES ovarian) | TGI (HS 578T breast) | TGI (MDA-MB-435) | TGI (OVCAR-5 ovarian) | TGI (SF-295 CNS) | TGI (M14 melanoma) | TGI (RXF 393 renal) | TGI (SK-MEL-2 melanoma) | TGI (UO-31 renal) | TGI (HCT-15 colon) | TGI (COLO 205 colon) | TGI (TK-10 renal) | TGI (K-562 leukemia) | TGI (NCI-H23 lung) | TGI (OVCAR-4 ovarian) | TGI (PC-3 prostate) | TGI (MALME-3M melanoma) | TGI (SNB-75 CNS) | TGI (SF-268 CNS) | TGI (786-0 renal)
59.5 µM: TGI (BT-549 breast)
inactive: GI50 (SK-OV-3 ovarian) > 100 µM | GI50 (BT-549 breast) 4.37 µM | GI50 (DU-145 prostate) 16.9 µM | GI50 (OVCAR-3 ovarian) 47.9 µM | GI50 (SNB-19 CNS) > 100 µM | GI50 (U251 CNS) > 100 µM | GI50 (MDA-MB-231 breast) 35 µM | GI50 (KM12 colon) > 100 µM | GI50 (SK-MEL-5 melanoma) > 100 µM | GI50 (SK-MEL-28 melanoma) > 100 µM | GI50 (LOX IMVI melanoma) > 100 µM | GI50 (T-47D breast) > 100 µM | GI50 (UACC-62 melanoma) 44.4 µM | GI50 (ACHN renal) > 100 µM | GI50 (NCI-H226 lung) 60.3 µM | GI50 (SN12C renal) 73.4 µM | GI50 (CAKI-1 renal) > 100 µM | GI50 (A498 renal) > 100 µM | GI50 (NCI-H460 lung) > 100 µM | GI50 (SW-620 colon) > 100 µM | GI50 (IGROV1 ovarian) > 100 µM | GI50 (HL-60(TB) leukemia) 10.6 µM | GI50 (NCI-H522 lung) > 100 µM | GI50 (MCF7 breast) > 100 µM | GI50 (MOLT-4 leukemia) 8.97 µM | GI50 (HT29 colon) > 100 µM | GI50 (NCI/ADR-RES ovarian) > 100 µM | GI50 (HS 578T breast) > 100 µM | GI50 (MDA-MB-435) > 100 µM | GI50 (OVCAR-5 ovarian) > 100 µM | GI50 (SF-295 CNS) > 100 µM | GI50 (M14 melanoma) 47.1 µM | GI50 (RXF 393 renal) > 100 µM | GI50 (SK-MEL-2 melanoma) > 100 µM | GI50 (UO-31 renal) > 100 µM | GI50 (HCT-15 colon) > 100 µM | GI50 (COLO 205 colon) > 100 µM | GI50 (TK-10 renal) > 100 µM | GI50 (K-562 leukemia) 9.3 µM | GI50 (NCI-H23 lung) > 100 µM | GI50 (OVCAR-4 ovarian) > 100 µM | GI50 (PC-3 prostate) 19.2 µM | GI50 (MALME-3M melanoma) 91.2 µM | GI50 (SNB-75 CNS) > 100 µM | GI50 (SF-268 CNS) > 100 µM | GI50 (786-0 renal) > 100 µM

O=C1C=Cc2cscc21
37.5 µM: TGI (MOLT-4 leukemia)
52.6 µM: TGI (CCRF-CEM leukemia)
85.8 µM: TGI (UO-31 renal)
68.1 µM: TGI (MCF7 breast)
84.5 µM: TGI (M14 melanoma)
32.8 µM: TGI (RXF 393 renal)
42.5 µM: TGI (NCI-H522 lung)
29.3 µM: TGI (HCT-116 colon)
96.8 µM: TGI (SN12C renal)
31.4 µM: TGI (786-0 renal)
67 µM: TGI (CAKI-1 renal)
63.7 µM: TGI (MALME-3M melanoma)
81.5 µM: TGI (T-47D breast)
66.9 µM: TGI (HCT-15 colon)
> 100 µM: TGI (SK-OV-3 ovarian) | TGI (BT-549 breast) | TGI (DU-145 prostate) | TGI (SNB-19 CNS) | TGI (U251 CNS) | TGI (RPMI-8226 leukemia) | TGI (KM12 colon) | TGI (SK-MEL-5 melanoma) | TGI (UACC-257 melanoma) | TGI (SK-MEL-28 melanoma) | TGI (HOP-62 NSCLC) | TGI (LOX IMVI melanoma) | TGI (UACC-62 melanoma) | TGI (ACHN renal) | TGI (SF-539 CNS) | TGI (A498 renal) | TGI (NCI-H460 lung) | TGI (SW-620 colon) | TGI (IGROV1 ovarian) | TGI (HL-60(TB) leukemia) | TGI (EKVX NSCLC) | TGI (HT29 colon) | TGI (NCI/ADR-RES ovarian) | TGI (HS 578T breast) | TGI (MDA-MB-435) | TGI (OVCAR-8 ovarian) | TGI (SF-295 CNS) | TGI (A549 NSCLC) | TGI (SK-MEL-2 melanoma) | TGI (HOP-92 NSCLC) | TGI (COLO 205 colon) | TGI (TK-10 renal) | TGI (K-562 leukemia) | TGI (NCI-H23 lung) | TGI (OVCAR-4 ovarian) | TGI (PC-3 prostate) | TGI (SNB-75 CNS) | TGI (SF-268 CNS)
80.6 µM: TGI (MDA-MB-231 breast)
47.7 µM: TGI (OVCAR-3 ovarian)
